± gives the expanded uncertainty stated by the source.
Experiment: xn = mol fraction of the nth substance listed
Conditions: 101 kPa, Liquid, Direct current cell with electrodes

C[N+](C)(C)CCO.[Cl-] [choline chloride] + OCCO
electrical conductivity [S/m]
Conditions | x1 = 0.28 | x1 = 0.34 | x1 = 0.36
298.15 K | 0.832 ± 0.0094 | 0.733 ± 0.012 | 0.68 ± 0.0094
303.15 K | 1.067 ± 0.0075 | 1.019 ± 0.0082 | 0.9138 ± 0.0081
308.15 K | 1.207 ± 0.007 | 1.141 ± 0.0068 | 1.086 ± 0.0076
313.15 K | 1.413 ± 0.009 | 1.355 ± 0.009 | 1.294 ± 0.0079
318.15 K | 1.656 ± 0.0077 | 1.589 ± 0.0073 | 1.479 ± 0.0068
323.15 K | 1.798 ± 0.0094 | 1.718 ± 0.0087 | 1.633 ± 0.0072
328.15 K | 2.126 ± 0.013 | 2.023 ± 0.012 | 1.839 ± 0.0076
333.15 K | 2.425 ± 0.0078 | 2.299 ± 0.008 | 2.01 ± 0.0068
338.15 K | 2.515 ± 0.0041 | 2.42 ± 0.01 | 2.177 ± 0.0068
343.15 K | 2.627 ± 0.0053 | 2.56 ± 0.0058 | 2.347 ± 0.006
348.15 K | 2.78 ± 0.0049 | 2.707 ± 0.005 | 2.475 ± 0.005
353.15 K | 2.869 ± 0.004 | 2.8072 ± 0.0009 | 2.604 ± 0.0052

C[P+](c1ccccc1)(c1ccccc1)c1ccccc1.[Br-] [methyltriphenylphosphonium bromide] + OCC(O)CO
electrical conductivity [S/m]
Conditions | x1 = 0.2 | x1 = 0.25 | x1 = 0.34
298.15 K | 0.0116 ± 0.0006 | 0.0103 ± 0.0006 | 0.0062 ± 0.0006
303.15 K | 0.0198 ± 0.0006 | 0.0172 ± 0.0006 | 0.0124 ± 0.0006
308.15 K | 0.037 ± 0.001 | 0.0319 ± 0.0006 | 0.0186 ± 0.0006
313.15 K | 0.041 ± 0.001 | 0.0394 ± 0.0006 | 0.0277 ± 0.0006
318.15 K | 0.0607 ± 0.0006 | 0.0549 ± 0.0006 | 0.0405 ± 0.0006
323.15 K | 0.0816 ± 0.0006 | 0.0719 ± 0.0006 | 0.0496 ± 0.0006
328.15 K | 0.0965 ± 0.0006 | 0.0927 ± 0.0006 | 0.0701 ± 0.0006
333.15 K | 0.1233 ± 0.0006 | 0.1124 ± 0.0006 | 0.0858 ± 0.0006
338.15 K | 0.1608 ± 0.0006 | 0.1487 ± 0.0006 | 0.116 ± 0.001
343.15 K | 0.1971 ± 0.0007 | 0.1778 ± 0.0006 | 0.1493 ± 0.0006
348.15 K | 0.2874 ± 0.0007 | 0.2196 ± 0.0006 | 0.1811 ± 0.0006
353.15 K | 0.3594 ± 0.0007 | 0.2599 ± 0.0007 | 0.2154 ± 0.0006

CCN(CC)CCO.Cl [2-(diethylamino)ethanol hydrochloride] + OCCO
electrical conductivity [S/m]
Conditions | x1 = 0.2 | x1 = 0.25 | x1 = 0.34
298.15 K | 0.5661 ± 0.0054 | 0.543 ± 0.0057 | 0.512 ± 0.006
303.15 K | 0.6994 ± 0.0052 | 0.6878 ± 0.0058 | 0.6627 ± 0.0057
308.15 K | 0.8245 ± 0.0054 | 0.8305 ± 0.0053 | 0.794 ± 0.005
313.15 K | 0.9699 ± 0.0067 | 0.9486 ± 0.0061 | 0.9283 ± 0.0061
318.15 K | 1.158 ± 0.0074 | 1.134 ± 0.0073 | 1.095 ± 0.0065
323.15 K | 1.341 ± 0.007 | 1.315 ± 0.0069 | 1.254 ± 0.0068
328.15 K | 1.509 ± 0.0075 | 1.477 ± 0.0071 | 1.433 ± 0.007
333.15 K | 1.714 ± 0.0074 | 1.666 ± 0.0073 | 1.616 ± 0.0069
338.15 K | 1.875 ± 0.0063 | 1.839 ± 0.0065 | 1.778 ± 0.0065
343.15 K | 2.029 ± 0.007 | 1.99 ± 0.01 | 1.942 ± 0.0072
348.15 K | 2.226 ± 0.0076 | 2.192 ± 0.0076 | 2.135 ± 0.0074
353.15 K | 2.405 ± 0.0072 | 2.367 ± 0.0071 | 2.31 ± 0.007

CCN(CC)CCO.Cl [2-(diethylamino)ethanol hydrochloride] + OCC(O)CO
electrical conductivity [S/m]
Conditions | x1 = 0.2 | x1 = 0.25 | x1 = 0.34
298.15 K | 0.0487 ± 0.0013 | 0.0602 ± 0.0016 | 0.075 ± 0.002
303.15 K | 0.078 ± 0.001 | 0.0958 ± 0.0011 | 0.118 ± 0.0019
308.15 K | 0.11 ± 0.0014 | 0.104 ± 0.0013 | 0.164 ± 0.0019
313.15 K | 0.139 ± 0.0017 | 0.156 ± 0.0022 | 0.207 ± 0.0022
318.15 K | 0.188 ± 0.002 | 0.211 ± 0.0022 | 0.2716 ± 0.0027
323.15 K | 0.2357 ± 0.0018 | 0.264 ± 0.0027 | 0.3381 ± 0.0024
328.15 K | 0.2716 ± 0.0019 | 0.3426 ± 0.003 | 0.3903 ± 0.0031
333.15 K | 0.3246 ± 0.0026 | 0.4086 ± 0.003 | 0.4878 ± 0.0038
338.15 K | 0.3962 ± 0.0029 | 0.4916 ± 0.0034 | 0.5754 ± 0.0033
343.15 K | 0.4646 ± 0.0028 | 0.5748 ± 0.0032 | 0.6521 ± 0.004
348.15 K | 0.5335 ± 0.003 | 0.6474 ± 0.0028 | 0.7754 ± 0.0052
353.15 K | 0.6095 ± 0.0031 | 0.71 ± 0.01 | 0.9109 ± 0.0055

C[P+](c1ccccc1)(c1ccccc1)c1ccccc1.[Br-] [methyltriphenylphosphonium bromide] + OCCO
electrical conductivity [S/m]
Conditions | x1 = 0.16 | x1 = 0.2 | x1 = 0.25
298.15 K | 0.194 ± 0.0026 | 0.156 ± 0.0026 | 0.109 ± 0.0021
303.15 K | 0.257 ± 0.002 | 0.219 ± 0.0023 | 0.16 ± 0.0018
308.15 K | 0.3103 ± 0.0026 | 0.2649 ± 0.0022 | 0.1914 ± 0.0019
313.15 K | 0.3845 ± 0.0027 | 0.3246 ± 0.0025 | 0.2502 ± 0.0022
318.15 K | 0.4437 ± 0.0025 | 0.3858 ± 0.0024 | 0.2964 ± 0.0016
323.15 K | 0.5072 ± 0.0037 | 0.4405 ± 0.0031 | 0.3265 ± 0.0028
328.15 K | 0.6279 ± 0.0041 | 0.5395 ± 0.0037 | 0.4307 ± 0.0038
333.15 K | 0.711 ± 0.004 | 0.6221 ± 0.0041 | 0.5129 ± 0.003
338.15 K | 0.8169 ± 0.0048 | 0.7423 ± 0.004 | 0.5797 ± 0.0036
343.15 K | 0.9496 ± 0.0043 | 0.8192 ± 0.0034 | 0.6923 ± 0.0032
348.15 K | 1.031 ± 0.003 | 0.9074 ± 0.0037 | 0.7372 ± 0.0025
353.15 K | 1.12 ± 0.0036 | 1.003 ± 0.0033 | 0.8114 ± 0.003

C[N+](C)(C)CCO.[Cl-] [choline chloride] + OCC(O)CO
electrical conductivity [S/m]
Conditions | x1 = 0.25 | x1 = 0.34 | x1 = 0.5
298.15 K | 0.1463 ± 0.0007 | 0.1749 ± 0.0013 | 0.1929 ± 0.0012
303.15 K | 0.1553 ± 0.0013 | 0.1951 ± 0.0017 | 0.219 ± 0.0025
308.15 K | 0.203 ± 0.0021 | 0.2549 ± 0.0022 | 0.3161 ± 0.003
313.15 K | 0.257 ± 0.002 | 0.3004 ± 0.0029 | 0.368 ± 0.003
318.15 K | 0.3112 ± 0.0026 | 0.399 ± 0.0043 | 0.4603 ± 0.0044
323.15 K | 0.3816 ± 0.0035 | 0.512 ± 0.004 | 0.5864 ± 0.0042
328.15 K | 0.4811 ± 0.0039 | 0.6046 ± 0.0042 | 0.6668 ± 0.0039
333.15 K | 0.5757 ± 0.0039 | 0.7187 ± 0.0043 | 0.7805 ± 0.0047
338.15 K | 0.6717 ± 0.0041 | 0.816 ± 0.004 | 0.898 ± 0.004
343.15 K | 0.7805 ± 0.0052 | 0.8955 ± 0.005 | 0.9863 ± 0.0052
348.15 K | 0.9286 ± 0.006 | 1.063 ± 0.0065 | 1.155 ± 0.0062
353.15 K | 1.08 ± 0.01 | 1.219 ± 0.0047 | 1.295 ± 0.0057
